Laboratory results published in patent US11091421B2, “Benzene fused heterocyclic derivative and pharmaceutical composition comprising the same” (TAIWANJ PHARMACEUTICALS CO., LTD., priority 2017, dated 2021).

target: autotaxin (Homo sapiens, UniProt Q13822); experiment: Autotaxin inhibitor screening assay (phosphodiesterase activity, p-nitrophenol cleaved from bis-(p-nitrophenyl) phosphate, absorbance 410 nm); assay type: biochemical; conditions: pH 9
Experimental: As described above, the compounds in the present disclosure have the effect of inhibiting the activity of autotaxin, and can be used as autotaxin inhibitors. One method for inhibiting activity of autotaxin in environment is administering to the environment an effective amount of the compound of Formula (I). Please refer to the following experiment, the phosphodiesterase activity of autotaxin was measured using the p-nitrophenol that is a yellow product cleaved by autotaxin from the bis-(p-nitrophenyl) phosphate. Compound samples (10 μl) were incubated with autotaxin (10 μl) in a final volume of 200 μl assay buffer (5 mM CaCl2, 50 mM Tris-HCl, pH 9.0) containing bis-(p-nitrophenyl) phosphate (BNPP) at a final concentration of 3 mM at 37° C. After 30 minutes, absorbance at 410 nm of the reacted solution was measured. The percent inhibition for each test article (TA) (compound) was determined using the following equation. % Inhibition=(O.D.vehicle−O.D.TA)/O.D.vehicle×100

SMILES	inhibition at 30 µM
O=C(Nc1ccc2c(c1)CC(Cc1ccc(C(=O)O)cc1)C2)OCc1ccccc1 (stereo not drawn) [Compound 110]	50 to 80%

same assay, conditions: pH 9, compound at 30 μM; BNPP 3 mM, pH 9.0, 37° C., 30 minutes; read-out: Inhibition

SMILES	inhibition at 30 µM
O=C1/C(=C/c2ccc(OCc3cc(F)c(F)cc3F)cc2)CCc2cc(O)ccc21 [Compound 99]	< 50%
CN(Cc1cc(F)c(F)cc1F)C(=O)c1ccc(CC2CCc3cc(O)ccc3C2=O)cc1 (stereo not drawn) [Compound 61]	50 to 80%
O=C(OCc1cc(F)c(F)cc1F)c1ccc(CC2CCc3cc(O)ccc3C2=O)cc1 (stereo not drawn) [Compound 57]	> 80%
O=C(O)c1ccc(COc2ccc3c(c2)C/C(=C\c2ccc(OCc4cc(F)c(F)cc4F)c(F)c2)C3=O)cc1 [Compound 15]	50 to 80%
O=C(O)c1ccc(/C=C2\CCc3cc(OCCc4ccc(F)cc4)ccc3C2=O)cc1 [Compound 50]	50 to 80%
O=C(NCc1ccc(F)c(F)c1)c1ccc(CC2CCc3cc(O)ccc3C2=O)cc1 (stereo not drawn) [Compound 59]	50 to 80%
O=C(NCc1cc(F)ccc1F)c1ccc(CC2CCc3cc(O)ccc3C2=O)cc1 (stereo not drawn) [Compound 56]	< 50%
O=C(O)c1ccc(CC2CCc3cc(OCc4cc(F)c(F)cc4F)ccc3C2=O)cc1 (stereo not drawn) [Compound 44]	< 50%
O=C1c2ccc(OCCc3cc(F)ccc3F)cc2CCC1Cc1ccc(O)c(O)c1 (stereo not drawn) [Compound 53]	> 80%
O=C(NCCO)c1ccc(CC2CCc3cc(OCc4cc(F)c(F)cc4F)ccc3C2=O)cc1 (stereo not drawn) [Compound 45]	50 to 80%
O=C1c2cc(O)ccc2CC1CC1CCN(C(=O)OCc2cc(Cl)cc(Cl)c2)CC1 (stereo not drawn) [Compound 117]	< 50%
O=C(O)c1ccc(COc2ccc3c(c2)C/C(=C\c2ccc(-c4ccc(F)cc4)cc2)C3=O)cc1 [Compound 12]	> 80%
O=C(Nc1ccc(CC2CCc3cc(O)ccc3C2=O)cc1)Nc1cc(Cl)cc(Cl)c1 (stereo not drawn) [Compound 118]	< 50%
O=C(NCCc1ccc(Cl)c(Cl)c1)c1ccc(CC2CCc3cc(O)ccc3C2=O)cc1 (stereo not drawn) [Compound 60]	50 to 80%
O=C(Nc1ccc2c(c1)C/C(=C\c1cccc(C(F)(F)F)c1)C2=O)OCc1ccccc1 [Compound 26]	< 50%
O=C(Nc1ccc2c(c1)C(=O)N(Cc1ccc(C(F)(F)F)cc1)C2=O)OCc1ccccc1 [Compound 38]	< 50%
O=C1/C(=C/c2ccc(C(F)(F)F)cc2)Cc2ccc(OCc3ccc(F)c(F)c3)cc21 [Compound 6]	< 50%
O=C(NCc1cc(F)ccc1F)c1ccc(/C=C2\Cc3cc(O)ccc3C2=O)cc1 [Compound 33]	50 to 80%
O=C(Nc1ccc(CC2CCc3cc(O)ccc3C2=O)cc1)OCc1cc(Cl)cc(Cl)c1 (stereo not drawn) [Compound 70]	> 80%
COC(=O)c1ccc(COc2ccc3c(c2)O/C(=C\c2ccc(F)c(F)c2)C3=O)cc1 [Compound 89]	50 to 80%
O=C(OCc1ccc(F)c(F)c1)c1ccc(CC2CCc3cc(OCc4ccc(F)c(F)c4)ccc3C2=O)cc1 (stereo not drawn) [Compound 58]	> 80%
O=C1/C(=C/c2cccc(C(F)(F)F)c2)CCc2cc(OCc3ccc(F)c(F)c3)ccc21 [Compound 93]	50 to 80%
O=C(NCc1cc(F)ccc1F)c1ccc(CC2Cc3cc(O)ccc3C2=O)cc1 (stereo not drawn) [Compound 32]	< 50%

SMILES	inhibition at 30 µM
O=C(O)c1ccc(COc2ccc3c(c2)CC(Cc2cc(Cl)cc(Cl)c2)C3=O)cc1 (stereo not drawn) [Compound 134]	> 80%
O=C(O)c1ccc(CN2CCc3cc(OCc4cc(F)c(F)cc4F)ccc3C2=O)cc1 [Compound 77]	50 to 80%
O=C(O)c1ccc(COc2ccc3c(c2)C/C(=C\c2ccc(OCc4cc(F)c(F)cc4F)cc2)C3=O)cc1 [Compound 14]	> 80%
O=C(O)c1ccc(CC2CCc3c(OCc4cc(F)c(F)cc4F)cccc3C2=O)cc1 (stereo not drawn) [Compound 47]	50 to 80%
O=C(OCc1cc(F)ccc1F)c1ccc(CC2CCc3cc(OCc4cc(F)ccc4F)ccc3C2=O)cc1 (stereo not drawn) [Compound 62]	> 80%
O=C(O)c1ccc(/C=C2\Cc3cccc(OCc4cc(F)c(F)cc4F)c3C2=O)cc1 [Compound 11]	50 to 80%
O=C1/C(=C/c2ccc(C(F)(F)F)cc2)CCc2cc(OCc3ccc(F)c(F)c3)ccc21 [Compound 92]	50 to 80%
O=C(OCc1cc(F)c(F)cc1F)c1ccc(CC2Cc3ccc(O)cc3C2=O)cc1 (stereo not drawn) [Compound 34]	50 to 80%
O=C(Nc1ccc2c(c1)C/C(=C\c1ccc(C(=O)O)cc1)C2=O)OCc1ccccc1 [Compound 28]	< 50%
O=C(Nc1ccc(F)c(F)c1)c1ccc2c(c1)C(=O)N(Cc1cccc(C(F)(F)F)c1)C2=O [Compound 96]	50 to 80%
O=C1c2ccc(O)cc2CCC1Cc1ccc(OCCOc2ccc(F)cc2F)cc1 (stereo not drawn) [Compound 102]	50 to 80%
O=C1/C(=C/c2ccc(OCCOc3ccc(F)cc3F)cc2)CCc2cc(O)ccc21 [Compound 101]	< 50%
O=C1c2ccc(O)cc2CCC1CN1CCN(C(=O)OCc2cc(Cl)cc(Cl)c2)CC1 (stereo not drawn) [Compound 85]	> 80%
CS(=O)(=O)c1ccc(COc2ccc3c(c2)C/C(=C\c2ccc(F)c(Cl)c2)C3=O)cc1 [Compound 126]	< 50%
CS(=O)(=O)N1CCN(C(=O)c2ccc(COc3ccc4c(c3)C/C(=C\c3cc(Cl)cc(Cl)c3)C4=O)cc2)CC1 [Compound 121]	< 50%
O=C(Nc1ccc(CC2CCc3cc(O)ccc3C2=O)cc1)OCc1ccc(Cl)c(Cl)c1 (stereo not drawn) [Compound 68]	> 80%
O=C(CCc1ccc(CC2CCc3cc(O)ccc3C2=O)cc1)c1ccc(F)c(F)c1 (stereo not drawn) [Compound 81]	50 to 80%
O=C1/C(=C/c2ccc(OCCc3ccc(F)cc3)cc2)CCc2cc(O)ccc21 [Compound 100]	< 50%
O=C(O)c1ccc(COc2ccc3c(c2)C/C(=C\c2ccc(OCCOc4ccc(F)cc4F)cc2)C3=O)cc1 [Compound 16]	50 to 80%
O=C(Nc1ccc2c(c1)C/C(=C\c1ccc(C(F)(F)F)cc1)C2=O)OCc1ccccc1 [Compound 27]	< 50%
O=C(Nc1ccc(CC2CCc3cc(O)ccc3C2=O)cc1)OCc1cc(F)c(F)cc1F (stereo not drawn) [Compound 71]	50 to 80%
O=C(O)c1ccc(/C=C2\CCc3c(OCc4cc(F)c(F)cc4F)cccc3C2=O)cc1 [Compound 46]	50 to 80%

Now from value to compound:

inhibition at 30 µM	SMILES
50 to 80%	O=C(O)c1ccc(COc2ccc3c(c2)C/C(=C\c2cc(F)c(F)c(F)c2)C3=O)cc1 [Compound 18]
< 50%	O=C(O)c1ccc(/C=C2\Cc3cc(OCc4cc(F)c(F)cc4F)ccc3C2=O)cc1 [Compound 10]
< 50%	O=C(O)c1cccc(/C=C2\Cc3ccc(OCc4ccc(F)c(F)c4)cc3C2=O)c1 [Compound 9]
< 50%	CS(=O)(=O)Cc1ccc(COc2ccc3c(c2)C/C(=C\c2cc(Cl)cc(Cl)c2)C3=O)cc1 [Compound 124]
50 to 80%	O=C(O)c1ccc(COc2ccc3c(c2)C/C(=C\c2cc(Cl)cc(Cl)c2)C3O)cc1 (stereo not drawn) [Compound 133]
> 80%	CS(=O)(=O)NC(=O)c1ccc(COc2ccc3c(c2)C/C(=C\c2cc(Cl)cc(Cl)c2)C3=O)cc1 [Compound 125]
> 80%	CNC(=O)c1ccc(COc2ccc3c(c2)C/C(=C\c2cc(Cl)cc(Cl)c2)C3=O)cc1 [Compound 120]
> 80%	COC(=O)c1ccc(COc2ccc3c(c2)C/C(=C\c2ccc(Cl)c(F)c2)C3=O)cc1 [Compound 88]
> 80%	O=C(O)COc1ccc(COc2ccc3c(c2)C/C(=C\c2cc(Cl)cc(Cl)c2)C3=O)cc1 [Compound 131]
< 50%	COC(=O)c1ccc(COc2ccc3c(c2)C/C(=C\c2cc(Cl)cc(Cl)c2)C3=O)cc1 [Compound 132]
> 80%	O=C(O)c1ccc(COc2ccc3c(c2)C/C(=C\CCc2cc(Cl)cc(Cl)c2)C3=O)cc1 [Compound 17]
> 80%	O=C(O)c1ccc(COc2ccc3c(c2)C/C(=C\c2cc(Cl)cc(Cl)c2)C3=O)cc1 [Compound 20, (E)-4-(((2-(3,5-dichlorobenzylidene)-1-oxo-2,3-dihydro-1H-inden-5-yl)oxy)methyl)benzoic acid]
> 80%	O=C(O)c1ccc(COc2ccc3c(c2)C/C(=C\c2ccc(Cl)cc2)C3=O)cc1 [Compound 5]
< 50%	CS(=O)(=O)c1ccc(COc2ccc3c(c2)C/C(=C\c2cc(Cl)cc(Cl)c2)C3=O)cc1 [Compound 122]
> 80%	O=C(O)c1ccc(COc2ccc3c(c2)C/C(=C\c2ccc(Cl)cc2Cl)C3=O)cc1 [Compound 19]
> 80%	O=C(O)c1ccc(COc2ccc3c(c2)C/C(=C\c2cc(F)c(F)cc2F)C3=O)cc1 [Compound 21]
< 50%	CNS(=O)(=O)c1ccc(COc2ccc3c(c2)C/C(=C\c2cc(Cl)cc(Cl)c2)C3=O)cc1 [Compound 123]
> 80%	O=C(O)Cc1ccc(COc2ccc3c(c2)C/C(=C\c2cc(Cl)cc(Cl)c2)C3=O)cc1 [Compound 130]
> 80%	O=C(O)c1ccc(COc2ccc3c(c2)C/C(=C\c2ccc(Cl)c(F)c2)C3=O)cc1 [Compound 13]
< 50%	O=C(O)c1ccc(/C=C2\Cc3ccc(OCc4ccc(F)c(F)c4)cc3C2=O)cc1 [Compound 8]
50 to 80%	CONC(=O)c1ccc(COc2ccc3c(c2)C/C(=C\c2cc(Cl)cc(Cl)c2)C3=O)cc1 [Compound 127]
50 to 80%	O=C(O)c1ccc(COc2ccc3c(c2)C/C(=C\c2cc(Cl)cc(C(F)(F)F)c2)C3=O)cc1 [Compound 129]
50 to 80%	O=C1/C(=C/c2cccc(C(F)(F)F)c2)Cc2ccc(OCc3ccc(F)c(F)c3)cc21 [Compound 7]
